Holding throughout (experiment): relative viability (nuclei count vs DMSO), 5 days (fraction); higher = more cells survive
Compound in the experiment “Bromopyruvate + Olaparib”: C(C(=O)C(=O)O)Br [Bromopyruvate] + O=C(c1cc(Cc2n[nH]c(=O)c3ccccc23)ccc1F)N1CCN(C(=O)C2CC2)CC1 [Olaparib] (partner 8 µM)
In short, it runs like this:
(§1)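 Lung cancer cell lines were seeded in 1536-well plates and dosed by pin tool the next day, with either a single drug or a fixed anchor-drug dose combined with five library-drug doses (not always all listed) spaced in √10 steps. Five days later, one step fixed the cells and stained their nuclei (final 0.05% Triton X-100, 1% formaldehyde, 1 ug/ml Hoechst), and nuclei were counted on 4× images. Relative viability is the nuclei count in treated wells divided by the count in vehicle wells, and each value is the median of duplicate plates.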

Compound in the experiment “Bicalutamide + Foretinib”: CC(O)(CS(=O)(=O)c1ccc(F)cc1)C(=O)Nc1ccc(C#N)c(C(F)(F)F)c1 [Bicalutamide] + COc1cc2c(Oc3ccc(NC(=O)C4(C(=O)Nc5ccc(F)cc5)CC4)cc3F)ccnc2cc1OCCCN1CCOCC1 [Foretinib] (partner 0.25 µM)
In short, it runs like this: as §1

Compound in the experiment “Bromopyruvate + AZD7762”: C(C(=O)C(=O)O)Br [Bromopyruvate] + NC(=O)Nc1cc(-c2cccc(F)c2)sc1C(=O)N[C@H]1CCCNC1 [AZD7762] (partner 0.2 µM)
In short, it runs like this:
as §1

Compound in experiment [1]: CC(O)(CS(=O)(=O)c1ccc(F)cc1)C(=O)Nc1ccc(C#N)c(C(F)(F)F)c1 [Bicalutamide] + C[C@@H](Oc1cc(-c2cnn(C3CCNCC3)c2)cnc1N)c1c(Cl)ccc(F)c1Cl [Crizotinib] (partner 1 µM)
In short, it runs like this: as §1

Data on seven cell lines can be found in the supplement of paper PMC10307832.

As to NCI-H2170, the relative viability with Bromopyruvate + Olaparib (first compound 1 µM) came to 0.626; with Bromopyruvate + Olaparib (first compound 3.162 µM) it was 0.556; with Bromopyruvate + Olaparib (first compound 10 µM), 0.625; with Bromopyruvate + Olaparib (first compound 31.62 µM) it was 0.576; with Bromopyruvate + Olaparib (first compound 100 µM), 0.56; with Bicalutamide + Foretinib (first compound 0.08 µM), 0.993. Moreover, the relative viability is 1 with Bicalutamide + Foretinib (first compound 0.253 µM); 1.1 with Bicalutamide + Foretinib (first compound 0.8 µM); 0.98 with Bicalutamide + Foretinib (first compound 2.53 µM); 0.923 with Bromopyruvate + AZD7762 (first compound 1 µM); 0.989 with Bromopyruvate + AZD7762 (first compound 3.162 µM); 1.19 in the experiment with Bromopyruvate + AZD7762 (first compound 10 µM). Moreover, the relative viability with Bromopyruvate + AZD7762 (first compound 31.62 µM) came out at 0.893; with Bromopyruvate + AZD7762 (first compound 100 µM) it was 0.854; in experiment [1] (first compound 0.08 µM), 1.12; in experiment [1] (first compound 0.253 µM), 1.18; in experiment [1] (first compound 0.8 µM) it was 1.39; in experiment [1] (first compound 2.53 µM), 1.18.

NCI-H2347: the relative viability was 0.56 with Bromopyruvate + Olaparib (first compound 1 µM); 0.536 in the experiment with Bromopyruvate + Olaparib (first compound 3.162 µM); 0.511 with Bromopyruvate + Olaparib (first compound 10 µM); 0.559 with Bromopyruvate + Olaparib (first compound 31.62 µM); 0.57 with Bromopyruvate + Olaparib (first compound 100 µM); 1.26 in the experiment with Bicalutamide + Foretinib (first compound 0.08 µM). The relative viability with Bicalutamide + Foretinib (first compound 0.253 µM) was determined as 1.35; with Bicalutamide + Foretinib (first compound 0.8 µM), 1.34; in the experiment with Bicalutamide + Foretinib (first compound 2.53 µM), 1.04; in the experiment with Bromopyruvate + AZD7762 (first compound 1 µM), 0.751; with Bromopyruvate + AZD7762 (first compound 3.162 µM), 0.79; with Bromopyruvate + AZD7762 (first compound 10 µM), 0.754. In addition, the relative viability in the experiment with Bromopyruvate + AZD7762 (first compound 31.62 µM) turned out to be 0.711; in the experiment with Bromopyruvate + AZD7762 (first compound 100 µM), 0.773; in experiment [1] (first compound 0.08 µM), 0.797; in experiment [1] (first compound 0.253 µM), 0.621; in experiment [1] (first compound 0.8 µM) it was 0.689; in experiment [1] (first compound 2.53 µM), 0.675.

Turning to NCI-H2405, the relative viability with Bromopyruvate + Olaparib (first compound 1 µM) stood at 0.879; in the experiment with Bromopyruvate + Olaparib (first compound 3.162 µM) it was 0.859; in the experiment with Bromopyruvate + Olaparib (first compound 10 µM) it was 0.916; with Bromopyruvate + Olaparib (first compound 100 µM), 0.402; in the experiment with Bicalutamide + Foretinib (first compound 0.08 µM) it was 1.04; in the experiment with Bicalutamide + Foretinib (first compound 0.253 µM) it was 1.03. The relative viability in the experiment with Bicalutamide + Foretinib (first compound 0.8 µM) stood at 1.11; in the experiment with Bicalutamide + Foretinib (first compound 2.53 µM), 1.01; with Bromopyruvate + AZD7762 (first compound 1 µM), 0.998; in the experiment with Bromopyruvate + AZD7762 (first compound 3.162 µM), 0.888; with Bromopyruvate + AZD7762 (first compound 10 µM), 0.887; with Bromopyruvate + AZD7762 (first compound 100 µM), 0.254. The relative viability in experiment [1] (first compound 0.08 µM) stood at 0.913; in experiment [1] (first compound 0.253 µM), 0.817; in experiment [1] (first compound 0.8 µM), 0.962; in experiment [1] (first compound 2.53 µM) it was 0.837.

With NCI-H3122, the relative viability was found to be 0.647 in the experiment with Bromopyruvate + Olaparib (first compound 1 µM); 0.663 with Bromopyruvate + Olaparib (first compound 3.162 µM); 0.631 with Bromopyruvate + Olaparib (first compound 10 µM); 0.586 with Bromopyruvate + Olaparib (first compound 31.62 µM); 0.604 with Bromopyruvate + Olaparib (first compound 100 µM); 1.02 in the experiment with Bicalutamide + Foretinib (first compound 0.08 µM). Further, the relative viability with Bicalutamide + Foretinib (first compound 0.253 µM) was found to be 0.9; with Bicalutamide + Foretinib (first compound 0.8 µM), 0.996; in the experiment with Bicalutamide + Foretinib (first compound 2.53 µM) it was 1.01; with Bromopyruvate + AZD7762 (first compound 1 µM), 1.03; in the experiment with Bromopyruvate + AZD7762 (first compound 3.162 µM), 0.967; with Bromopyruvate + AZD7762 (first compound 10 µM) it was 1.04. In addition, the relative viability with Bromopyruvate + AZD7762 (first compound 31.62 µM) was 0.989; in the experiment with Bromopyruvate + AZD7762 (first compound 100 µM), 0.921; in experiment [1] (first compound 0.08 µM), 0.281; in experiment [1] (first compound 0.253 µM), 0.26; in experiment [1] (first compound 0.8 µM), 0.277; in experiment [1] (first compound 2.53 µM), 0.281.

On to PC-3 [JPC-3], for which the relative viability stood at 1.22 with Bromopyruvate + Olaparib (first compound 1 µM); 1.11 in the experiment with Bromopyruvate + Olaparib (first compound 10 µM); 1.11 with Bromopyruvate + Olaparib (first compound 100 µM); 1.01 with Bicalutamide + Foretinib (first compound 0.08 µM); 1.02 with Bicalutamide + Foretinib (first compound 0.253 µM); 1.07 in the experiment with Bicalutamide + Foretinib (first compound 0.8 µM). For the same cell line, the relative viability in the experiment with Bicalutamide + Foretinib (first compound 2.53 µM) is 1.11; with Bromopyruvate + AZD7762 (first compound 1 µM), 0.903; with Bromopyruvate + AZD7762 (first compound 10 µM), 0.933; with Bromopyruvate + AZD7762 (first compound 100 µM), 0.638; in experiment [1] (first compound 0.08 µM), 1.02; in experiment [1] (first compound 0.253 µM), 1.07. Besides, the relative viability in experiment [1] (first compound 0.8 µM) was determined as 1.06; in experiment [1] (first compound 2.53 µM), 1.02.

PC-14: the relative viability is 0.297 with Bromopyruvate + Olaparib (first compound 1 µM); 0.368 with Bromopyruvate + Olaparib (first compound 3.162 µM); 0.161 with Bromopyruvate + Olaparib (first compound 10 µM); 0.32 with Bromopyruvate + Olaparib (first compound 31.62 µM); 0.205 in the experiment with Bromopyruvate + Olaparib (first compound 100 µM); 0.951 in the experiment with Bicalutamide + Foretinib (first compound 0.08 µM). In addition, the relative viability with Bicalutamide + Foretinib (first compound 0.253 µM) worked out at 0.905; with Bicalutamide + Foretinib (first compound 0.8 µM), 1.03; with Bicalutamide + Foretinib (first compound 2.53 µM) it was 0.965; with Bromopyruvate + AZD7762 (first compound 1 µM) it was 0.483; with Bromopyruvate + AZD7762 (first compound 3.162 µM) it was 0.401; with Bromopyruvate + AZD7762 (first compound 10 µM), 0.407. Further, the relative viability with Bromopyruvate + AZD7762 (first compound 31.62 µM) was 0.412; with Bromopyruvate + AZD7762 (first compound 100 µM), 0.384; in experiment [1] (first compound 0.08 µM) it was 0.958; in experiment [1] (first compound 0.253 µM), 0.972; in experiment [1] (first compound 0.8 µM) it was 0.899; in experiment [1] (first compound 2.53 µM), 0.904.

As to RERF-LC-KJ, the relative viability in the experiment with Bromopyruvate + Olaparib (first compound 1 µM) came out at 0.981; in the experiment with Bromopyruvate + Olaparib (first compound 3.162 µM), 0.857; with Bromopyruvate + Olaparib (first compound 10 µM) it was 0.954; with Bromopyruvate + Olaparib (first compound 31.62 µM) it was 0.942; with Bromopyruvate + Olaparib (first compound 100 µM), 0.852; with Bicalutamide + Foretinib (first compound 0.08 µM) it was 0.814. The relative viability is 0.927 with Bicalutamide + Foretinib (first compound 0.253 µM); 1.04 with Bicalutamide + Foretinib (first compound 0.8 µM); 0.889 with Bicalutamide + Foretinib (first compound 2.53 µM); 0.97 with Bromopyruvate + AZD7762 (first compound 1 µM); 1.04 in the experiment with Bromopyruvate + AZD7762 (first compound 3.162 µM); 1.29 with Bromopyruvate + AZD7762 (first compound 10 µM). Further, the relative viability with Bromopyruvate + AZD7762 (first compound 31.62 µM) came out at 0.978; in the experiment with Bromopyruvate + AZD7762 (first compound 100 µM), 0.889; in experiment [1] (first compound 0.08 µM) it was 0.874; in experiment [1] (first compound 0.253 µM), 0.849; in experiment [1] (first compound 0.8 µM) it was 0.872; in experiment [1] (first compound 2.53 µM), 0.855.
